Patent US6780976B2, “Enone reductases, methods for producing same, and methods for selectively reducing a carbon-carbon double bond of an alpha,beta-unsaturated ketone using the reductases” (Daicel Chemical Industries, Ltd., priority 2001, dated 2004)
Each block holds one molecule with its values, some of them ahead of it.

Assays:
enone reductase [1] = experiment: Substrate specificity of purified enone reductase; assay type: biochemical, Kluyveromyces lactis; settings: enzyme obtained in Example 1
Protocol: A reaction mixture containing 50 mM potassium phosphate buffer (pH 6.5), […], 20 mM methyl vinyl ketone, and the enzyme is reacted at 30° C., and the decrease in absorbance at 340 nm, which is associated with the decrease of the amount of NADPH, is measured. 1 U is defined as the amount of enzyme catalyzing a decrease of 1 μmol NADPH in one minute. Quantitative analysis of the polypeptide is conducted by pigment binding methods using the protein assay kit (Bio-Rad Laboratories Inc.).
The enzyme obtained in Example 1 was reacted with various enones, ketones, and aldehydes, and the dehydrogenation activity was assayed. The result was represented by a relative activity, taking the dehydrogenation activity of the enzyme on methyl vinyl ketone as 100, and the results are shown in Table 2.

enone reductase [2] = experiment: Activity of bacterial cell extract of E. coli HB101 (pSE-KLR1) expressing recombinant enone reductase to various substrates; assay type: biochemical, Kluyveromyces lactis; settings: for Relative activity: methyl vinyl ketone = 100
Protocol: (§1) A reaction mixture containing 50 mM potassium phosphate buffer (pH 6.5), 0.2 mM NADPH, 20 mM methyl vinyl ketone, and the enzyme is reacted at 30° C., and the decrease in absorbance at 340 nm, which is associated with the decrease of the amount of NADPH, is measured. 1 U is defined as the amount of enzyme catalyzing a decrease of 1 μmol NADPH in one minute. Quantitative analysis of the polypeptide is conducted by pigment binding methods using the protein assay kit (Bio-Rad Laboratories Inc.).
E. coli HB101 strain, transformed with plasmid pSE-KLR1 expressing the enone reductase, was cultured overnight in liquid LB medium containing ampicillin at 30° C. 0.1 mM IPTG was added to the culture, and then, was further cultured for 4 hours.
(§2) The bacterial cells were harvested by centrifugation, and then, were suspended in 50 mM potassium phosphate buffer (pH8.0) containing 0.02% 2-mercaptoethanol, 2mM PMSF, and 10% glycerin. The cells were treated in a closed-chamber sonicator UCD-200TM (Cosmo Bio) for 3 minutes to crush the cells. The bacterial cell lysate was centrifuged and the supernatant was recovered as bacterial cell extract. The extract was assayed for activities to various types of substrates. In addition, E. coli HB 101 strain without the plasmid was cultured overnight in LB culture medium. 0.1 mM IPTG was added to the culture, and then, was further cultured for 4 hours. The bacterial cells were crushed by the same method as above, and the extract was assayed for the activities to various types of substrates.

[3] = tested on: E. coli HB 101 strain without the plasmid; experiment: Activity of bacterial cell extract of host only (E. coli HB101 without the plasmid) to various substrates; assay type: biochemical
Protocol: as §1, §2

[4] = Enone reductase activity of cell-free extracts of E. coli JM109 expressing the homologues YNN4, YL60, YCZ2; assay type: biochemical; settings: E. coli JM109 with pSE-YNN4, pSE-YL60 or pSE-YCZ2; 0.1 mM IPTG, 4 hours
Protocol: as §1
E. coli JM109 strains, each containing pSE-YNN4, pSE-YL60 or pSE-YCZ2, were cultured in LB culture medium containing ampicillin. The induction of the enzyme was achieved by adding 0.1 mM IPTG and culturing for 4 hours. The bacterial cells were harvested by centrifugation. Respective bacterial cells were suspended in cell lysis buffer (50 mM KPB (pH 8.0), 1 mM EDTA, 0.02% 2-ME, 2 mM PMSF, and 10% glycerol); and the cells were lysed in a sonicator. The supernatant prepared by centrifugation was used as the cell-free extract.
Each of the cell-free extract was assayed for the enone reductase activity. […] Thus, it was verified that all of the three types of homologues of the enzyme of the present invention had the requisite enone reductase activity.

[5] = Methyl vinyl ketone-reducing activity of the purified enzyme (specific activity, pH and temperature dependency); assay type: biochemical; settings: after Phenyl-Superose, NADPH
Protocol: as §1
Specific activity of the purified enzyme was about 31.7 U/mg.
The methyl vinyl ketone-reducing activity of the enzyme obtained in Example 1 was tested, by altering the pH of the reaction with potassium phosphate buffer and Britton Robinson buffer. The optimal pH for the reaction was determined to be 6.5 to 7.0.
The methyl vinyl ketone-reducing activity of the enzyme obtained in Example 1 was assayed under standard reaction conditions, with the exception that only the temperatures were altered. The optimal temperature was 37 to 45° C.

[6] = coenzyme NADPH, activity on methyl vinyl ketone taken as 100
[7] = coenzyme NADH, activity on methyl vinyl ketone (NADPH) taken as 100

Relative activity (enone reductase [1]; [6]): 1%
Molecule: CC(=O)C(C)=O [2,3-butanedione]

Molecule: CCC(C)=O [2-butanone]
Relative activity (enone reductase [1]; [6]): 0%

Relative activity (enone reductase [1]; [6]): 0%
Molecule: CC1=CCCC1=O [2-methyl-2-cyclopenten-1-one]

Relative activity (enone reductase [1]; [6]): 0%
Molecule: CC1=CC(=O)CC1 [3-methyl-2-cyclopenten-1-one]

Molecule: CC=C(C)C(C)=O [3-methyl-3-pentene-2-one]
Relative activity (enone reductase [1]; [6]): 48%
Specific activity (enone reductase [2]): 2.52 U/mg
Relative activity (enone reductase [2]): 32.4%
Specific activity [3]: 0.004 U/mg

Molecule: CC=CC(C)=O [3-pentene-2-one]
Relative activity (enone reductase [1]; [6]): 16%
Specific activity (enone reductase [2]): 1.23 U/mg
Relative activity (enone reductase [2]): 15.9%
Specific activity [3]: 0.015 U/mg

Molecule: CC(=O)C=C(C)C [4-methyl-3-pentene-2-one]
Relative activity (enone reductase [1]; [6]): 1%

Relative activity (enone reductase [1]; [6]): 0%
Molecule: CC(=O)c1ccccc1 [Acetophenone]

Relative activity (enone reductase [1]; [6]): 0%
Molecule: C/C=C/C(=O)O [Crotonic acid]

Molecule: C=CC(=O)CC [Ethyl vinyl ketone]
Relative activity (enone reductase [1]; [7]): 52%
Relative activity (enone reductase [1]; [6]): 537%
Specific activity (enone reductase [2]): 41.8 U/mg
Specific activity [3]: 0.073 U/mg

Molecule: C=CC(C)=O [Methyl vinyl ketone]
Relative activity (enone reductase [1]; [7]): 14%
Relative activity (enone reductase [1]; [6]): 100%
Specific activity (enone reductase [2]): 7.78 U/mg
Relative activity (enone reductase [2]): 100%
Specific activity [3]: 0.066 U/mg

Relative activity (enone reductase [1]; [6]): 1%
Molecule: CC(=O)C=O [Methylglyoxal]

B1: YL60: Saccharomyces cerevisiae enone reductase homologue, SEQ ID NO:6, expressed in E. coli from pSE-YL60 (protein)
chain: MAQVAIPETMKAVVIEDGKAVVKEGIPIPELEEGFVLIKTLAVAGNPTDWAHIDYKIGPQGSILGCDAAGQIVKLGPAVNPKDFSIGDYIYGFIHGSSVRFPSNGAFAEYSAISTVVAYKSPNELKFLGEDVLPAGPVRSLEGVATIPVSLTTAGLVLTYNLGLDLKWEPSTPQRKGPILLWGGATAVGQSLIQLANKLNGFTKIIVVASRKHEKLLKEYGADELFDYHDIDVVEQIKHKYNNISYLVDCVANQDTLQQVYKCAADKQDATIVELKNLTEENVKKENRRQNVTIDIIRLYSIGGHEVPFGNITLPADSEARKAAIKFIKFINPKINDGQIRHIPVRVYKNGLCDVPHILKDIKYGKNSGEKLVAVLN
Enone reductase activity of cell-free extract [4]: 0.198 U/mg protein

B2: YNN4: Saccharomyces cerevisiae enone reductase homologue, SEQ ID NO:4, expressed in E. coli from pSE-YNN4 (protein)
chain: MSASIPETMKAVVIENGKAVVKQDIPIPELEEGFVLIKTVAVAGNPTDWKHIDFKIGPQGALLGCDAAGQIVKLGPNVDAARFAIGDYIYGVIHGASVRFPSNGAFAEYSAISSETAYKPAREFRLCGKDKLPEGPVKSLEGAVSLPVSLTTAGMILTHSFGLDMTWKPSKAQRDQPILFWGGATAVGQMLIQLAKKLNGFSKIIVVASRKHEKLLKEYGADELFDYHDADVIEQIKKKYNNIPYLVDCVSNTETIQQVYKCAADDLDATVVQLTVLTEKDIKEEDRRQNVSIEGTLLYLIGGNDVPFGTFTLPADPEYKEAAIKFIKFINPKINDGEIHHIPVKVYKNGLDDIPQLLDDIKHGRNSGEKLVAVLK
Enone reductase activity of cell-free extract [4]: 0.268 U/mg protein

B3: YCZ2: Saccharomyces cerevisiae enone reductase homologue, SEQ ID NO:8, expressed in E. coli from pSE-YCZ2 (protein)
chain: MKAVVIEDGKAVVKEGVPIPELEEGFVLIKTLAVAGNPTDWAHIDYKVGPQGSILGCDAAGQIVKLGPAVDPKDFSIGDYIYGFIHGSSVRFPSNGAFAEYSAISTVVAYKSPNELKFLGEDVLPAGPVRSLEGAATIPVSLTTAGLVLTYNLGLNLKWEPSTPQRNGPILLWGGATAVGQSLIQLANKLNGFTKIIVVASRKHEKLLKEYGADQLFDYHDIDVVEQIKHKYNNISYLVDCVANQNTLQQVYKCAADKQDATVVELTNLTEENVKKENRRQNVTIDRTRLYSIGGHEVPFGGITFPADPEARRAATEFVKFINPKISDGQIHHIPARVYKNGLYDVPRILEDIKIGKNSGEKLVAVLN
Enone reductase activity of cell-free extract [4]: 0.133 U/mg protein

B4: enzyme obtained in Example 1: NADPH-dependent enone reductase purified from Kluyveromyces lactis IFO 1267; amino acid sequence SEQ ID NO:2 (protein)
chain: MSVPTTQKAVIIEGDKAVVKTDVSVPELKEGTALVKVEAVAGNPTDWKHIAYKIGPEGSILGCDIAGTVVKLGPNASTDLKVGDTGFGFVHGASQTDPKNGAFAEYARVYPPLFYKSNLTHSTADEISEGPVKNFESAASLPVSLTTAGVSLCHHLGSKMEWHPSTPQHTHPLLIWGGATAVGQQLIQVAKHINAYTKIVTVASKKHEKLLKSYGADDVFDYHDAGVIEQIKSKYPNLQHVIDAVGSEDSIPEAYKVTADSLPATLLEVVPMTIESIPEEIRKDNVKIDITLLYRASGQEILLGATRFPASPEYHEATVKFVKFINPHLNNGDIHHMNIKVFSNGLDDVPALTEGIKEGKNKNVKYVARL
Specific activity of the purified enzyme [5]: about 31.7 U/mg
